{"source": "patent US20140249084A1", "about": "“PTH-CONTAINING THERAPEUTIC/PROPHYLACTIC AGENT FOR OSTEOPOROSIS, CHARACTERIZED IN THAT PTH IS ADMINISTERED ONCE A WEEK IN A UNIT DOSE OF 100 TO 200 UNITS” (ASAHI KASEI PHARMA CORPORATION, priority 2009, published 2014)", "key": {"[1]": {"tested_on": "nausea and vomiting associated with administration of the test drug", "assay": "Prescriptions for nausea and vomiting associated with administration of the test drug", "assay_type": "in vivo, human", "conditions": "summary of Table 18", "text": "The administration period and efficacy of various drugs to treat nausea and vomiting associated with administration of the test drug were studied."}, "[2]": {"conditions": "20 μg/day, Non-patent Reference 1, cited from earlier work"}, "[3]": {"conditions": "conventional daily administration; osteoporosis patients having moderate renal dysfunction; Non-patent Reference 32; cited from earlier work"}, "[4]": {"tested_on": "patients having prednisone-induced osteoporosis complicated by arthralgia", "conditions": "daily administration, Non-patent References 23 and 24; cited from earlier work"}}, "note": "Structures can show the parent of a compound that is named as a salt.", "data": [{"compound": "Cc1c(OCC(F)(F)F)ccnc1C[S+]([O-])c1nc2ccccc2[nH]1", "note": "(stereo not drawn) [Takepron OD, lansoprazole]", "values": [{"measurement": "Effect on nausea and vomiting associated with administration of the test drug (summary)", "setting": "[1]", "value": "effective"}]}, {"compound": "O=c1[nH]c2ccccc2n1CCCN1CCC(n2c(=O)[nH]c3cc(Cl)ccc32)CC1", "note": "[Nauzelin, domperidone]", "values": [{"measurement": "Effect on nausea and vomiting associated with administration of the test drug (summary)", "setting": "[1]", "value": "effective"}]}, {"compound": "CCN(CC)CCNC(=O)c1cc(Cl)c(N)cc1OC", "note": "[Primperan, metoclopramide]", "values": [{"measurement": "Effect on nausea and vomiting associated with administration of the test drug (summary)", "setting": "[1]", "value": "effective"}]}, {"compound": "PTH: PTH (parathyroid hormone) in conventional daily administration (20 μg/day), results from cited literature", "values": [{"measurement": "Patients with persistent hypercalcemia", "setting": "[2]", "value": 3, "unit": "%"}, {"measurement": "Patients with hypercalcemia", "setting": "[2]; blood samples 4 to 6 hours after administration", "value": 11, "unit": "%"}, {"measurement": "Patients with serum calcium exceeding 11.0 mg/mL after administration", "setting": "[3]", "value": 11.76, "unit": "%"}]}, {"compound": "CCOc1cc(N)c(Cl)cc1C(=O)NCC1CN(Cc2ccc(F)cc2)CCO1", "note": "(stereo not drawn) [Gasmotin, mosapride citrate]", "values": [{"measurement": "Effect on nausea and vomiting associated with administration of the test drug (summary)", "setting": "[1]", "value": "effective"}]}, {"compound": "NC(N)=Nc1nc(CSCCC(N)=NS(N)(=O)=O)cs1", "note": "[Gaster D, famotidine]", "values": [{"measurement": "Effect on nausea and vomiting associated with administration of the test drug (summary)", "setting": "[1]", "value": "effective"}]}, {"compound": "CC[C@H](C)[C@H](NC(=O)[C@H](CCC(=O)O)NC(=O)[C@H](CO)NC(=O)[C@@H](NC(=O)[C@@H](N)CO)C(C)C)C(=O)N[C@@H](CCC(N)=O)C(=O)N[C@@H](CC(C)C)C(=O)N[C@@H](CCSC)C(=O)N[C@@H](Cc1cnc[nH]1)C(=O)N[C@@H](CC(N)=O)C(=O)N[C@@H](CC(C)C)C(=O)NCC(=O)N[C@@H](CCCCN)C(=O)N[C@@H](Cc1cnc[nH]1)C(=O)N[C@@H](CC(C)C)C(=O)N[C@@H](CC(N)=O)C(=O)N[C@@H](CO)C(=O)N[C@@H](CCSC)C(=O)N[C@@H](CCC(=O)O)C(=O)N[C@@H](CCCN=C(N)N)C(=O)N[C@H](C(=O)N[C@@H](CCC(=O)O)C(=O)N[C@@H](Cc1c[nH]c2ccccc12)C(=O)N[C@@H](CC(C)C)C(=O)N[C@@H](CCCN=C(N)N)C(=O)N[C@@H](CCCCN)C(=O)N[C@@H](CCCCN)C(=O)N[C@@H](CC(C)C)C(=O)N[C@@H](CCC(N)=O)C(=O)N[C@@H](CC(=O)O)C(=O)N[C@H](C(=O)N[C@@H](Cc1cnc[nH]1)C(=O)N[C@@H](CC(N)=O)C(=O)N[C@@H](Cc1ccccc1)C(=O)O)C(C)C)C(C)C", "note": "[Forteo, teriparatide (rDNA origin) injection]", "values": [{"measurement": "Bone strengthening effect compared with Fosamax", "setting": "[4]", "value": "stronger bone strengthening effect than Fosamax"}]}]}
